Data taken from patent publication US11400104B2, “Skeletal removal of bisphosphonates” (The Regents of the University of California, priority 2016, dated 2022).
Entries after “also recorded” stand apart in the source; their conditions may differ.

What was measured:
[1] = hydroxyapatite (HAP) binding affinity, relative retention times normalized to RIS; conditions: FIG. 7
Procedure: FIG. 7 is a bar graph showing hydroxyapatite (HAP) binding affinity of Zoledronate (ZOL), ROX-RIS, 5-FAM-ZOL, and AF647-ZOL. Relative retention times were normalized to RIS.
Hydroxyapatite assays indicate that the FL-BPs generally retain substantial affinity for bone mineral that reflect the affinity of the BP component and to a lesser extent, the affinity of the conjugated fluorophore. Hydroxyapatite (Macro-Prep® Ceramic hydroxyapatite Type II […]) was obtained from Bio-Rad Laboratories, Inc. Hercules, Calif. Accurately weighed hydroxyapatite powder (1.4-1.6 mg) was suspended in a 4 mL clear vial containing the appropriate volume of assay buffer (0.05% (wt/vol) Tween20, 10 μM EDTA and 100 mM HEPES pH=7.4) for 3 hours. Hydroxyapatite was then incubated with increasing amounts of FAM-BP and ROX-BP (0, 25, 50, 100, 200, and 300 μM). Samples were gently shaken for 3 hours at 37° C. in appropriate volume of assay buffer (0.05% (wt/vol) Tween20, 10 μM EDTA and 100 mM HEPES pH=7.4). Subsequent to the equilibrium period, the vials were centrifuged at 10,000 rpm for 5 minutes to separate the solids and the supernatant. 0.3 mL of the supernatant was collected and the equilibrium solution concentration is measured by using Shimadzu UV-VIS spectrometer. For the calibration series, FL-BP probe standards were prepared by serial dilution from the stock solution with the same isotherm buffer to give the range from 0 to 400 μM. Calibration curves were constructed using standard solutions of the target FL-BPs. Fluorescent emission can also be used to calculate the binding parameters. Nonspecific binding was measured with a similar procedure in the absence of hydroxyapatite as control. Binding parameters (Kd and Bmax, represent the equilibrium dissociate constant and maximum number of binding sites, respectively) were calculated using the PRISM program (Graphpad, USA). The binding parameters of each compound was measured in 5 independent experiments. […]

mouse maxilla = assay: preliminary study: fluorescent imaging of mouse maxilla after 5-FAM-ZOL IV or ROX-RIS intraoral injection; assay type: in vivo; conditions: single IV 200 μl of 350 μM; 3 weeks after
Procedure: In a preliminary study female C57B16/J (B6) mice (8 weeks old) received either a single IV injection via tail vein of 200 μl of 350 μM 5-FAM-ZOL (5-FAM-ZOL, #BV111001, BioVinc LLC, Culver City, Calif.) or a single intraoral injection of 25 μl of 50 μM ROX-RIS (5(6)-ROX-RIS, #BV150101, BioVinc LLC, CA) to gingival/palatal tissue at maxillary left first molar (white arrow in FIG. 11). […], mice were euthanized 3 weeks after the IV injection of 5-FAM-ZOL or 2 days after the intraoral injection of ROX-RIS. Skulls (containing maxilla) were harvested and standardized fluorescent biophotonics image was obtained using an excitation wavelength of 460 nm and the 515 nm filter (LAS3000, FUJIFILM Corp).

mouse cranial bone = assay: cranial bone displacement: AF647-ZOL pre-adsorbed via IV, FAM-ZOL sub-periosteal injection; assay type: in vivo; conditions: for signal of pre-adsorbed AF647-ZOL at the FAM-ZOL injection site: AF647-ZOL 100 μl of 50 μM IV 6 days before, increasing dose of FAM-ZOL; for FAM signal on the cranial bone at the injection site: sub-periosteal 10 μl of 0, 1, 10 or 50 μM
Procedure: FIG. 12A to FIG. 12C show the displacement and replacement of AF647-ZOL and 5-FAM-ZOL. FIG. 12A are fluorescent images of cranial bone. AF647-ZOL (50 μM) was pre-adsorbed on cranial bone via IV injection. 5-FAM-ZOL at the indicated doses was directly injected to the sub-periosteal space. […] The first bars of each set are for AF647-ZOL and the second bars of each set are for 5-FAM-ZOL. *, P<0.05 vs Veh by Dunnett's test.
Mice were pre-treated by 100 μl of 50 μM AF647-ZOL retro-orbital IV injection. Six days later, mice received sub-periosteal injection to cranial bone with 10 μl of 0 μM, 1 μM, 10 μM, or 50 μM FAM-ZOL. The cranial bone was harvested and soft tissues were removed. The fluorescent signals of AF647 and FAM were measured by standardized fluorescent biophotonics. The cranial bones were then prepared for cryosection. Cross-sections were made by the tape method and evaluated by confocal laser scanning microscopy.

femur trabecular bone = assay: micro CT evaluation of pharmacological function of 5-FAM-ZOL in vitamin D deficient rats; assay type: in vivo; conditions: vitamin D deficient (VitD (−)) rats; FIG. 13
Procedure: The pharmacological function of 5-FAM-ZOL was examined in vitamin D deficient (VitD (−)) rats (n=3 in each group). […] Bars are 1.0 mm. *: p<0.05 by Student's t-test.
This study determines the anti-resorptive function of FL-BP in vivo, as compared to ZOL. Female B6 mice were injected with 50 μM ZOL (n=6), 50 μM FL-BP (n=6) or 0.9% NaCl vehicle solution (control: n=6) via tail vein. Three weeks later, mice were euthanized and femur and L4/L5 were harvested. After fixed in 10% buffered formalin, bone samples were subjected to micro CT analysis. The anti-resorptive function were quantitatively established by the trabecular bone three-dimensional morphometry (e.g., BV/TV, Tb.N, Tb.Th, TbSp). FL-BPs with minimal or no pharmacological BP function are used.

O=C(NCC(O)C[n+]1ccn(CC(O)(P(=O)(O)O)P(=O)(O)O)c1)c1ccc(-c2c3ccc(=O)cc-3oc3cc(O)ccc23)c(C(=O)O)c1 (stereo not drawn) [5-FAM-ZOL]
influence of the fluorophore on hydroxyapatite affinity [1]: small reduction | fluorescent signal in maxilla and zygomatic arch (mouse maxilla): Strong and relatively uniform green fluorescent signal | signal of pre-adsorbed AF647-ZOL at the FAM-ZOL injection site (mouse cranial bone): decreased | signal of pre-adsorbed AF647-ZOL at the FAM-ZOL injection site (mouse cranial bone; listed as FAM-ZOL): gradual decrease | AF647-ZOL signal on the external versus internal bone surface after FAM-ZOL injection (mouse cranial bone; cranial bone cryo-cross sections): disproportionately reduced | FAM signal on the cranial bone at the injection site (mouse cranial bone): increased with increasing injection dose | FAM signal on the cranial bone at the injection site (mouse cranial bone; listed as FAM-ZOL): dose dependent increase | location of FAM-ZOL signal in cranial bone (mouse cranial bone; sub-periosteal injection, cryo-cross sections): primarily on the external bone surface | pharmacological (anti-resorptive) function (femur trabecular bone): exhibited pharmacological function; also recorded: effectively blocked catabolic bone remodeling
